The IC50 is the concentration that inhibits the measured activity by half.

The experiment concerns the target T1, SARM1 (Homo sapiens, UniProt Q6SZW1).
T1 construct: made in house; host or cells: NRK1-HEK293T cells, transient transfection; cleared cell lysate used without purification
T1 sequence (Q6SZW1 with tags, fused parts or gaps): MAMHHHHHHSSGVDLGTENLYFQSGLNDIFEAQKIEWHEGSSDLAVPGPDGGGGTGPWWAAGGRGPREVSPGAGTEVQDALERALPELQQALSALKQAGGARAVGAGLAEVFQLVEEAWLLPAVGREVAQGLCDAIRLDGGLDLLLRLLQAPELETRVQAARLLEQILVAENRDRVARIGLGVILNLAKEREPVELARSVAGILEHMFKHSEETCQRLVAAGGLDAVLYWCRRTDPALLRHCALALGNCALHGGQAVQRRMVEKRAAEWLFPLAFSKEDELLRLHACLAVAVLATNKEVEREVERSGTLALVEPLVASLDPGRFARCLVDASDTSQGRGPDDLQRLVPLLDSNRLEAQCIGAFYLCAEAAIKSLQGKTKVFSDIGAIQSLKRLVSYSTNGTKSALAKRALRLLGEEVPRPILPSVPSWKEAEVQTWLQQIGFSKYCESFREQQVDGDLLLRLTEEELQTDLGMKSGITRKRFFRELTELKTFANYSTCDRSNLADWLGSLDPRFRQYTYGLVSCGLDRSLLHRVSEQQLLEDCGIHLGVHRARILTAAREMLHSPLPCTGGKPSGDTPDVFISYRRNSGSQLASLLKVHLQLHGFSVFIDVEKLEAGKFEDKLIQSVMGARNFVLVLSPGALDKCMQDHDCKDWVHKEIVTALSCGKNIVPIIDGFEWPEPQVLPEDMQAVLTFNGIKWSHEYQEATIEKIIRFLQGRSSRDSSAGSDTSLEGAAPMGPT
Kind of experiment: ARM-SAM-TIR SARM1 IC50 assay (NADase activity, NAD+ cleavage, RapidFire mass spectrometry). The format is biochemical. The settings on record: ARM-SAM-TIR lysate 5 μg/mL, 2 h pre-incubation with compound at room temperature, 5 μM NAD+, 2 hr incubation. How it is done: This Example describes an assay of ARM-SAM-TIR NADase activity and use of this assay to measure the efficacy of compounds of Formula I/II to block SARM1 mediated NAD+ cleavage. This assay was optimized in such a way as to characterize the efficacy of the compounds in Formula I/I to inhibit SARM1 activity and to calculate an IC50 value for each compound. This assay makes use of full length SARM1, which encompasses the ARM, SAM and TIR domains. […] NRK1-HEK293T cells were seeded onto 150 cm^2 plates at 20×10^6 cells per plate. The next day, the cells were transfected with […] ARM-SAM-TIR expression plasmid, SEQ ID NO: 1. The cultures were supplemented with 1 mM NR at time of transfection to minimize toxicity from ARM-SAM-TIR overexpression. Forty-eight hours after transfection, cells were harvested, pelleted by centrifugation at 1,000 rpm (Sorvall ST 16R centrifuge, Thermo Fisher), and washed once with cold PBS (0.01 M phosphate buffered saline NaCl 0.138 M; KCl 0.0027 M; pH 7.4). The cells were resuspended in PBS with protease inhibitors (cOmplete™ protease inhibitor cocktail, Roche product #11873580001) and cell lysates were prepared by sonication (Branson Sonifer 450, output=3, 20 episodes of stroke). The lysates were centrifuged (12,000×g for 10 min at 4° C.) to remove cell debris and the supernatants (containing ARM-SAM-TIR protein) were stored at −80° C. for later use in the in vitro ARM-SAM-TIR NADase assay (see below). Protein concentration was determined by the Bicinchoninic (BCA) method and used to normalize lysate concentrations. The enzymatic assay was performed in a 384-well polypropylene plate in Dulbecco's PBS buffer in a final assay volume of 20 μL. […] The reaction was initiated by addition of 5 μM final assay concentration of NAD+ as substrate. After a 2 hr room temperature incubation, the reaction was terminated with 40 μL of stop solution of 7.5% trichloroactetic acid in acetonitrile. The NAD+ and ADPR concentrations were analyzed by a RapidFire High Throughput Mass Spectrometry System (Agilent Technologies, Santa Clara, CA) using an API4000 triple quadrupole mass spectrometer (AB Sciex Framingham, MA).
Regarding `O=C(NCc1ccc(Cl)cc1)c1nccc2c(-c3ccncc3)n[nH]c12` [Example 14], the IC50 is less than 0.1 µM.

Regarding `C[C@@H](NC(=O)c1cccc2c(-c3ccncc3)n[nH]c12)c1ccc(Cl)cc1` [Example 15], the IC50 was 0.1 to 1 µM.

As to `O=C(NCc1ccc(Cl)c(F)c1)c1cccc2c(-c3ccncc3)n[nH]c12` [Example 16], the IC50 was less than 0.1 µM.

As for `O=C(NCc1ccc(Cl)s1)c1cccc2c(-c3ccncc3)n[nH]c12` [Example 17], the IC50 is less than 0.1 µM. In the case of `O=C(NCc1ccc(Cl)cc1)c1cccc2c(-c3cnc[nH]3)n[nH]c12` [Example 18], the IC50 was greater than 10 µM.

For `O=C(NCc1ccc(Cl)cc1)c1cccc2c(-c3cncs3)n[nH]c12` [Example 19], the IC50 was greater than 10 µM. The value for `Cn1cncc1-c1n[nH]c2c(C(=O)NCc3ccc(Cl)cc3)cccc12` [Example 20] was greater than 10 µM; that for `O=C(NCc1ccc(Cl)cc1)c1cccc2c(-c3cnco3)n[nH]c12` [Example 21] was greater than 10 µM; that for `Cc1ccc(C(=O)NCc2ccc(Cl)nc2)c2[nH]nc(-c3ccncc3)c12` [Example 24] was 1.01 to 5 µM.

With `Cc1cc(C(=O)NCc2ccc(Cl)nc2)c2[nH]nc(-c3ccncc3)c2c1` [Example 25], the IC50 lay in the range of 0.1 to 1 µM.

The values above are taken from patent publication US12435084B2, “Indazole derivatives as inhibitors of SARM1” (Disarm Therapeutics, Inc., priority 2020, dated 2025).
